ChEMBL document CHEMBL5291721, “A preclinical secondary pharmacology resource illuminates target-adverse drug reaction associations of marketed drugs” (Nat Commun, 2023)

Legend:
[1] = target: T1, Alpha-1A adrenergic receptor (Homo sapiens, UniProt P35348); assay type: functional, cell-based
T1 sequence (P35348 whole entry): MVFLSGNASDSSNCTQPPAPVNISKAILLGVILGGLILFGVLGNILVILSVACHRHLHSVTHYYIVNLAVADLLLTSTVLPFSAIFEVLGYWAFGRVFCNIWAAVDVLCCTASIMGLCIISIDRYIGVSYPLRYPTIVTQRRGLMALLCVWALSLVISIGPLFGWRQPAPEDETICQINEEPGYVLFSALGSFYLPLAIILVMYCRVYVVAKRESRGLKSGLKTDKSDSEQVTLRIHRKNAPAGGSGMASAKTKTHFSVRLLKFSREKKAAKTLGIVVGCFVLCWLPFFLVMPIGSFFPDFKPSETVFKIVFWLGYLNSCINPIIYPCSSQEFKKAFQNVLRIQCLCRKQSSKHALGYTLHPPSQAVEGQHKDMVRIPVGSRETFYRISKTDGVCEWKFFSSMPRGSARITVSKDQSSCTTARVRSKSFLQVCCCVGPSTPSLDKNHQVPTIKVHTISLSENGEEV

[2] = target: T2, Alpha-2A adrenergic receptor (Homo sapiens, UniProt P08913); assay type: functional, cell-based
T2 sequence (P08913 whole entry): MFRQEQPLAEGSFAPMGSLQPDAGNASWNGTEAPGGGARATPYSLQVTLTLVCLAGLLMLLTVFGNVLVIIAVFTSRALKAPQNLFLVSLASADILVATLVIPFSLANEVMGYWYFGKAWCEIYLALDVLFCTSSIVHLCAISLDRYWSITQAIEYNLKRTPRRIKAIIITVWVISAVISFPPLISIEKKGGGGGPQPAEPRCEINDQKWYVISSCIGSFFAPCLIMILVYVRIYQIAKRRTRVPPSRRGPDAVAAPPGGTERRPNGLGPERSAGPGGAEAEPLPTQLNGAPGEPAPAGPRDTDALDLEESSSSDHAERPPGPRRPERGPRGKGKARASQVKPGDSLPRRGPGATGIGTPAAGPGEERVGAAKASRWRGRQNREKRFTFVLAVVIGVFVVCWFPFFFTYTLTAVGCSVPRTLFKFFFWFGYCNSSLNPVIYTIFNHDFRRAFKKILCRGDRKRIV

[3] = target: Cannabinoid receptor 1 (Homo sapiens, UniProt P21554); assay type: functional, cell-based
Cannabinoid receptor 1, sequence (P21554 whole entry): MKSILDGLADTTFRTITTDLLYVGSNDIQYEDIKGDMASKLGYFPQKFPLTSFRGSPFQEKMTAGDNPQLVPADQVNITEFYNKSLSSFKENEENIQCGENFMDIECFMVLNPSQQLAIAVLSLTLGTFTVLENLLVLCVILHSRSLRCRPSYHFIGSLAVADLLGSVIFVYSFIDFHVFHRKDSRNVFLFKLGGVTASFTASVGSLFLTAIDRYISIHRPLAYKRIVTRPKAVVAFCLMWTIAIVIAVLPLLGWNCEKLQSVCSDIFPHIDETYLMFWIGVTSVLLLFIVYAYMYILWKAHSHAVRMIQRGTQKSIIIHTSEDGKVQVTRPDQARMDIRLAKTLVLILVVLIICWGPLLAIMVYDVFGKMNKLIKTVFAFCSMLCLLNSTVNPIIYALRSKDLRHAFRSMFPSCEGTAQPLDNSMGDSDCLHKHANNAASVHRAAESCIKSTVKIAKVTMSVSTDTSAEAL

[4] = target: Growth hormone secretagogue receptor type 1 (Homo sapiens, UniProt Q92847)
Growth hormone secretagogue receptor type 1, sequence (Q92847 whole entry): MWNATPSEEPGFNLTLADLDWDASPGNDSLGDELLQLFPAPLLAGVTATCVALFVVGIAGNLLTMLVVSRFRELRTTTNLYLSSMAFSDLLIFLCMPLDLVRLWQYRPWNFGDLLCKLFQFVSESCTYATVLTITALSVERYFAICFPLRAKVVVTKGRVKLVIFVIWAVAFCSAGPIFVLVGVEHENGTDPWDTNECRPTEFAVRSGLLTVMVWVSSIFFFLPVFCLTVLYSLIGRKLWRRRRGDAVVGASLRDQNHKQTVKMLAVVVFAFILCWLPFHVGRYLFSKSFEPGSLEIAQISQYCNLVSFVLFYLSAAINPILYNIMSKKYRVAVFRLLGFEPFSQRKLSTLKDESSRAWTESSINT

[5] = target: T3, Neuropeptide Y receptor type 1 (Homo sapiens, UniProt P25929)
T3 sequence (P25929 whole entry): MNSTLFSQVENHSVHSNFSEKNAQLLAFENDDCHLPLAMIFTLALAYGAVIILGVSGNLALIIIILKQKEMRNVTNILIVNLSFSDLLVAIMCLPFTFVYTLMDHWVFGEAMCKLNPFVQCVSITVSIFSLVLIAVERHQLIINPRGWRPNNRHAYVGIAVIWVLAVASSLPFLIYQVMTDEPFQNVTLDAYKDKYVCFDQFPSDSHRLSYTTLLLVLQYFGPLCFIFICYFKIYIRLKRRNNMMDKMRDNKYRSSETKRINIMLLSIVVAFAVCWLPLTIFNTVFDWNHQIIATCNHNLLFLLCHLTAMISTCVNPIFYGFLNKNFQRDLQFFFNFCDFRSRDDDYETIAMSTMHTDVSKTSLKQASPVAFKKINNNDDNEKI

[6] = target: T4, Amine oxidase [flavin-containing] A (Homo sapiens, UniProt P21397); assay type: functional
T4 sequence (P21397 whole entry): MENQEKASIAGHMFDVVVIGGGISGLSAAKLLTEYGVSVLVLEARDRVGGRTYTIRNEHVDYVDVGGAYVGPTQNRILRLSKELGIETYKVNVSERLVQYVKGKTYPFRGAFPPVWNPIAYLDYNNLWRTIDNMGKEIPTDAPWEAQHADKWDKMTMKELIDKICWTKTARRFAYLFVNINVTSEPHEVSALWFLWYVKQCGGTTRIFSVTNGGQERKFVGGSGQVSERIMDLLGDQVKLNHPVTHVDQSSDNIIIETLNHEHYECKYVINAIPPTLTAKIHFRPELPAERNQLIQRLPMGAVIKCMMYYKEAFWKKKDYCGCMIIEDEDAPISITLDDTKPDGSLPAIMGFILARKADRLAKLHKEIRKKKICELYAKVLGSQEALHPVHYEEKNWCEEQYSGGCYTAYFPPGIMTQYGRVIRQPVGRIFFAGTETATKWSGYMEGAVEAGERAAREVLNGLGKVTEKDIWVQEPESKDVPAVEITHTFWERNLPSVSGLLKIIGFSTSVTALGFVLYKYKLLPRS

[7] = target: T5, Equilibrative nucleoside transporter 1 (Homo sapiens, UniProt Q99808)
T5 sequence (Q99808 whole entry): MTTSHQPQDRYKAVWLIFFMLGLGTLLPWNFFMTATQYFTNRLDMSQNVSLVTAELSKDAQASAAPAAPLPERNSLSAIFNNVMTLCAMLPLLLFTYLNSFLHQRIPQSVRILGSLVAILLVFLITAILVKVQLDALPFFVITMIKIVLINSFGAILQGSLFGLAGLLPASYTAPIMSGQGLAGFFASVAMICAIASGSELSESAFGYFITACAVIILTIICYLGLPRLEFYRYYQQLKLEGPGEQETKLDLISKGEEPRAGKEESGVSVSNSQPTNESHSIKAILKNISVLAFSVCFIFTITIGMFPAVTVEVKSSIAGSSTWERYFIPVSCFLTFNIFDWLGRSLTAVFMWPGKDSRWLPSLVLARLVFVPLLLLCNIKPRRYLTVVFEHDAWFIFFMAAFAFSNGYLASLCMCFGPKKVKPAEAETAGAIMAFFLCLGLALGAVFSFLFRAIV
Further: assay procedure not described here.

Row | SMILES | AC50 [1] | AC50 [2] | AC50 [3] | AC50 [4] | AC50 [5] | AC50 [6] | AC50 [7]
1 | COc1ccc(CCN(C)CCCC(C#N)(c2cc(OC)c(OC)c(OC)c2)C(C)C)cc1OC (configuration not stated) [GALLOPAMIL] | > 30 µM | > 30 µM | > 30 µM | > 30 µM | > 30 µM | > 30 µM | –
2 | CC(C)C(=O)c1c(C(C)C)nn2ccccc12 [IBUDILAST] | > 30 µM | > 30 µM | > 30 µM | > 30 µM | > 30 µM | – | > 30 µM
3 | CC(C(=O)O)c1ccc(N2Cc3ccccc3C2=O)cc1 (configuration not stated) [INDOPROFEN] | > 30 µM | > 30 µM | – | > 30 µM | > 30 µM | > 30 µM | > 30 µM
4 | Nc1nc(N)nc(-c2cc(Cl)ccc2Cl)n1 [IRSOGLADINE] | > 30 µM | > 30 µM | > 30 µM | > 30 µM | > 30 µM | > 30 µM | –
5 | CC(C)=CCC/C(C)=C/C=C/C(C)=C/C=C/C(C)=C/C=C/C=C(C)/C=C/C=C(C)/C=C/C=C(\C)CCC=C(C)C [LYCOPENE] | > 30 µM | > 30 µM | – | > 30 µM | > 30 µM | > 30 µM | > 30 µM
6 | CCOC(=O)[N-]c1cn(N2CCOCC2)n[o+]1 [MOLSIDOMINE] | > 30 µM | > 30 µM | > 30 µM | > 30 µM | > 30 µM | – | > 30 µM
7 | O=C(O)/C=C/c1ccc(Cn2ccnc2)cc1 [OZAGREL] | – | > 30 µM | > 30 µM | > 30 µM | > 30 µM | > 30 µM | –
8 | CCCC(C)C1(CC)C(=O)NC(=O)NC1=O (configuration not stated) [PENTOBARBITAL] | > 30 µM | > 10 µM | – | > 10 µM | > 10 µM | > 30 µM | > 10 µM
9 | O=C(O)C[C@H](O)C[C@H](O)/C=C/c1c(C2CC2)nc2ccccc2c1-c1ccc(F)cc1 [PITAVASTATIN] | > 30 µM | > 10 µM | – | > 10 µM | > 10 µM | > 30 µM | > 10 µM
10 | Clc1ccc(CCCOCCCN2CCCCC2)cc1 [PITOLISANT] | > 30 µM | – | > 30 µM | > 30 µM | > 30 µM | > 30 µM | –
11 | Cc1ccc(-n2nccn2)c(C(=O)N2CCN(c3nc4cc(Cl)ccc4o3)CC[C@H]2C)c1 [SUVOREXANT] | > 30 µM | > 30 µM | > 30 µM | > 30 µM | > 30 µM | > 30 µM | –
12 | C/C(O)=C(\C#N)C(=O)Nc1ccc(C(F)(F)F)cc1 [TERIFLUNOMIDE] | > 30 µM | > 30 µM | > 30 µM | > 30 µM | – | 4.9 µM | > 30 µM
13 | COc1cc2c(N)nc(N3CCN(C(=O)OCC(C)(C)O)CC3)nc2c(OC)c1OC [TRIMAZOSIN] | > 30 µM | > 30 µM | > 30 µM | > 30 µM | > 30 µM | > 30 µM | –
14 | CN1C(=O)OC(C)(C)C1=O [TRIMETHADIONE] | – | > 10 µM | > 30 µM | > 10 µM | > 10 µM | > 10 µM | > 10 µM
